The target in the assay is T1, IRAK4 (Homo sapiens, UniProt Q9NWZ3).
T1 sequence (Q9NWZ3 1-460): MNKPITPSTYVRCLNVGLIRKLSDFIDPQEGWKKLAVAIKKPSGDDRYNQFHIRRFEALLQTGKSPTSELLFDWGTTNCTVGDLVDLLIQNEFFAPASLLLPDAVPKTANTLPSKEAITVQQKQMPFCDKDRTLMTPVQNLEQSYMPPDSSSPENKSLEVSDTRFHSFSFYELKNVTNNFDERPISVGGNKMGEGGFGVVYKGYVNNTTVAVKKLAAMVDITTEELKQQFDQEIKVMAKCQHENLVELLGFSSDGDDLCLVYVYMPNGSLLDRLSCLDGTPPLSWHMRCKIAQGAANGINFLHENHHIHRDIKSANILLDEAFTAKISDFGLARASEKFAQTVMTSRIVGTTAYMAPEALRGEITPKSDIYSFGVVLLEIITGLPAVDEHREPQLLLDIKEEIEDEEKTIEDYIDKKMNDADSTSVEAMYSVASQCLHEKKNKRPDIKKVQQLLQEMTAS
Nature of the assay: Hibit fluorescence detection of proteolysis (IRAK4-HiBiT in HEK293T cells). The format is cell-based. The arrangement: host or cells: HEK293T (ATCC). The following applies: for Dmax: HEK-293T. As for the experimental part: Utilizing HiBiT tag technology, the HiBiT tag-containing sequence (Seq. ID. No. 1, Beijing Tsingke Biotech Co., Ltd.) was connected to the IRAK4 plasmid (Seq. ID. No. 2, Beijing Tsingke Biotech Co., Ltd.), and the plasmid was transfected into HEK293T cells (ATCC). […] The 6-well plate that was incubated overnight was taken out. After the plate was left at room temperature for 15 min, the obtained mixture was added dropwise to the 6-well plate. […] Culture was performed at 37°C and 5% CO2 for 24 h. The 384-well plate was taken out and equilibrated to room temperature. 40 µL of Nano-Glo® HiBiT Lytic Detection System (Promega N3030) was added to each well and incubated at room temperature for 15 min. […] Prism 9.3 software was used to perform fitting analysis for data, and non-linear fitting (non-liner inhibitor (Bell-shaped)) and four parameters (4 parameter) were used, and the parameters was as follows: Span1 = Plateau1−Dip [formula] Span2 = Plateau2−Dip [formula] Section1 = Span1/(1+10^(∧)((LogEC50_1−X)*nH1)) [formula] Section2 = Span2/(1+10^(∧)((X−LogEC50_2)*nH2)) [formula]
The equation was as follows: Y=Dip+Section1+Section2. • Seq. ID. No. 1 ([…]), other DNA, synthetic construct, sequence length 33; • Seq. ID. No. 2 [formula]
Background: With HiBiT, luminescence reflects the tagged protein that the partner subunit can reach.

[1] abbreviates: IRAK4-HiBiT, HEK293T cells, 24 h.
Where [2] appears, read: IRAK4-HiBiT, HEK293T cells, 24 h, read-out: DC50.

Results on 19 molecules are retold here after patent EP4759807A1, “PROTEOLYSIS TARGETING CHIMERA COMPOUND FOR DEGRADING IRAK4 AND USE THEREOF” (Shenzhen Zhongge Biological Technology Co., Ltd., priority 2023, dated 2025).

Read-outs that look alike come from different tables or passages of the source.

In turn, `Cn1c(=O)n(C2CCC(=O)NC2=O)c2cccc(CN3CC4(CCN(C[C@H]5CC[C@H](n6cc(-n7cc(-c8cnn9ccc(N%10CCOCC%10)nc89)nn7)c(C(F)F)n6)CC5)CC4)C3)c21` (some centres unmarked) [Example 13, 3-(4-((7-(((1r,4r)-4-(3-(difluoromethyl)-4-(4-(5-morpholinopyrazolo[1,5-a]pyrimidin-3-yl)-1H -1,2,3-triazol-1-yl)-1H-pyrazol-1-yl)cyclohexyl)methyl)-2,7-diazaspiro[3.5]nonan-2-yl)methyl)-3-methyl-2-oxo-2,3-dihydro-1H-benzo[d]imidazol-1-yl)piperidine-2,6-dione] had a Dmax greater than 80%. The molecule further yielded a DC50 under setting [1] of less than 0.5 nM.
Molecule `C[C@H]1CN(c2ccn3ncc(-c4cn(-c5cn([C@H]6CC[C@H](CN7CC8(CCN(c9cccc%10c9n(C)c(=O)n%10C9CCC(=O)NC9=O)CC8)C7)CC6)nc5C(F)F)nn4)c3n2)CCO1` (some centres unmarked) [Compound 212] registered a Dmax greater than 80%. In addition, the DC50 under setting [2] was less than 0.5 nM.
As to `Cn1c(=O)n(C2CCC(=O)NC2=O)c2cccc(N3CCC4(CCN(C[C@H]5CC[C@H](n6cc(-n7cc(-c8cnn9ccc(N[C@@H]%10CCCC[C@@H]%10O)nc89)nn7)c(C(F)F)n6)CC5)CC4)C3)c21` (some centres unmarked) [Example 152], the Dmax is greater than 80%. This molecule also gave a DC50 under setting [1] of less than 0.5 nM.
Regarding `Cn1c(=O)n(C2CCC(=O)NC2=O)c2cccc(C#CC3CCN(C[C@H]4CC[C@H](n5cc(-n6cc(-c7cnn8ccc(N9CCOCC9)nc78)nn6)c(C(F)F)n5)CC4)CC3)c21` (some centres unmarked) [Example 17], the Dmax fell in the range of 70 to 80%. Also, under setting [1], the DC50 lay within 1 to 5 nM.
As for `Cn1c(=O)n(C2CCC(=O)NC2=O)c2cccc(N3CCC(CN4CCC(n5cc(-n6cc(-c7ccc8cc(C(N)=O)cnn78)nn6)c(C(F)F)n5)CC4)CC3)c21` (centres unmarked) [Example 74, 7-(1-(3-(difluoromethyl)-1-(1-((1-(1-(2,6-dioxopiperidin-3-yl)-3-methyl-2-oxo-2,3-dihydro-1H-benzo[d]imidazol-4-yl)piperidin-4-yl)methyl)piperidin-4-yl)-1H-pyrazol-4-yl)-1H-1,2,3-triazol-4-yl)pyrrolo[1,2-b]pyridazine-3-carboxamide], the Dmax (IRAK4-HiBiT, HEK293T cells, 24 h, read-out: Dmax) fell in the range of 70 to 80%. Further, the DC50 under setting [2] is less than 0.5 nM.
With `Cn1c(=O)n(C2CCC(=O)NC2=O)c2cccc(CN3CCC4(CC3)CN(C[C@H]3CC[C@H](n5cc(-n6cc(-c7cnn8ccc(N9CCOCC9)nc78)nn6)c(C(F)F)n5)CC3)CCO4)c21` (some centres unmarked) [Example 5], the Dmax is less than 60%. Further, the DC50 under setting [1] was less than 0.5 nM.
On to `Cn1c(=O)n(C2CCC(=O)NC2=O)c2cccc(N3CCC(N4CCN(C[C@H]5CC[C@H](n6cc(-n7cc(-c8cnn9ccc(N%10CC%11(COC%11)C%10)nc89)nn7)c(C(F)F)n6)CC5)CC4)CC3)c21` (some centres unmarked) [Compound 224], for which the Dmax was greater than 80%. The DC50 under setting [2] was less than 0.5 nM.
As for `Cn1c(=O)n(C2CCC(=O)NC2=O)c2cccc(N3CCC4(CC3)CN(C[C@H]3CC[C@H](n5cc(-n6cc(-c7ccc8cc(C(N)=O)cnn78)nn6)c(C(F)F)n5)CC3)CCO4)c21` (some centres unmarked) [Example 89, 7-(1-(3-(difluoromethyl)-1-((1r,4r)-4-((9-(1-(2,6-dioxopiperidin-3-yl)-3-methyl-2-oxo-2,3-dihydro-1H-benzo[d]imidazol-4-yl)-1-oxa-4,9-diazaspiro[5.5]undecan-4-yl)methyl)cyclohexyl)-1H-pyrazol-4-yl)-1H-1,2,3-triazol-4-yl)pyrrolo[1,2-b]pyridazine-3-carboxamide], the Dmax was greater than 80%. Moreover, the DC50 under setting [1] lay within 0.5 to 1 nM.
On the same counts, the results for `Cn1c(=O)n(C2CCC(=O)NC2=O)c2cccc(N3CCC(N4CCN(C[C@H]5CC[C@H](n6cc(-n7cc(-c8ccc9cc(C(N)=O)cnn89)nn7)c(C(F)F)n6)CC5)CC4)CC3)c21` (some centres unmarked) [Example 91, 7-(1-(3-(difluoromethyl)-1-((1r,4r)-4-((4-(1-(1-(2,6-dioxopiperidin-3-yl)-3-methyl-2-oxo-2,3-dihydro-1H-benzo[d]imidazol-4-yl)piperidin-4-yl)piperazin-1-yl)methyl)cyclohexyl)-1H-pyrazol-4-yl)-1H-1,2,3-triazol-4-yl)pyrrolo[1,2-b]pyridazine-3-carboxamide] are greater than 80% and less than 0.5 nM.
With `Cn1c(=O)n(C2CCC(=O)NC2=O)c2cccc(CN3CC4(C3)CN(C[C@H]3CC[C@H](n5cc(-n6cc(-c7cnn8ccc(N9CCOCC9)nc78)nn6)c(C(F)F)n5)CC3)C4)c21` (some centres unmarked) [Example 12, 3-(4-((6-(((1r,4r)-4-(3-(difluoromethyl)-4-(4-(5-morpholinopyrazolo[1,5-a]pyrimidin-3-yl)-1H -1,2,3-triazol-1-yl)-1H-pyrazol-1-yl)cyclohexyl)methyl)-2,6-diazaspiro[3.3]hept-2-yl)methyl)-3-methyl-2-oxo-2,3-dihydro-1H-benzo[d]imidazol-1-yl)piperidine-2,6-dione], the Dmax lay in the range of 70 to 80%. Also, under setting [1], the DC50 was less than 0.5 nM.
On the same counts, the results for `Cn1c(=O)n(C2CCC(=O)NC2=O)c2cccc(C#CC3CN(C[C@H]4CC[C@H](n5cc(-n6cc(-c7cnn8ccc(N9CCOCC9)nc78)nn6)c(C(F)F)n5)CC4)C3)c21` (some centres unmarked) [Example 27] are 60 to 70% and less than 0.5 nM.
On the same counts, the results for `Cn1c(=O)n(C2CCC(=O)NC2=O)c2cccc(N3CCC4(CCN(C[C@H]5CC[C@H](n6cc(-n7cc(-c8cnn9ccc(NCC%10CC%10)nc89)nn7)c(C(F)F)n6)CC5)CC4)C3)c21` (some centres unmarked) [Example 109] are greater than 80% and 0.5 to 1 nM.
Take `CN(C[C@H]1CC[C@H](n2cc(-n3cc(-c4cnn5ccc(N6CCOCC6)nc45)nn3)c(C(F)F)n2)CC1)C1CCC(Nc2cccc3c2n(C)c(=O)n3C2CCC(=O)NC2=O)CC1` (some centres unmarked) [Example 20, 3-(4-((4-((((1r,4r)-4-(3-(difluoromethyl)-4-(4-(5-morpholinopyrazolo[1,5-a]pyrimidin-3-yl)-1H-1,2,3-triazol-1-yl)-1H-pyrazol-1-yl)cyclohexyl)methyl)(methyl)amino)cyclohexyl)amino)-3-methyl-2-oxo-2,3-dihydro-1H-benzo[d]imidazol-1-yl)piperidine-2,6-dione]: the Dmax was greater than 80%. Besides, under setting [1], the DC50 is less than 0.5 nM.
In turn, `Cn1c(=O)n(C2CCC(=O)NC2=O)c2cccc(N3CCC4(CCN(C[C@H]5CC[C@H](n6cc(-n7cc(-c8cnn9ccc(NCCC(C)(C)O)nc89)nn7)c(C(F)F)n6)CC5)CC4)C3)c21` (some centres unmarked) [Compound 240] gave a Dmax greater than 80%. Further, the DC50 under setting [2] is less than 0.5 nM.
Turning to `Cn1c(=O)n(C2CCC(=O)NC2=O)c2cccc(NCCC3CC4(C3)CN(C[C@H]3CC[C@H](n5cc(-n6cc(-c7cnn8ccc(N9CCOCC9)nc78)nn6)c(C(F)F)n5)CC3)C4)c21` (some centres unmarked) [Example 26, 3-(4-((2-(2-(((1r,4r)-4-(3-(difluoromethyl)-4-(4-(5-morpholinopyrazolo[1,5-a]pyrimidin-3-yl)-1H-1,2,3-triazol-1-yl)-1H-pyrazol-1-yl)cyclohexyl)methyl)-2-azaspiro[3.3]heptan-6-yl)ehtyl)amino)-3-methyl-2-oxo-2,3-dihydro-1H-benzo[d]imidazol-1-yl)piperidine-2,6-dione], the Dmax lay within 70 to 80%. The same molecule came in with a DC50 under setting [1] of less than 0.5 nM.
For `Cn1c(=O)n(C2CCC(=O)NC2=O)c2cccc(N3CCC(N4CCN(C[C@H]5CC[C@H](n6cc(-n7cc(-c8cnn9cc(C#N)cnc89)nn7)c(C(F)F)n6)CC5)CC4)CC3)c21` (some centres unmarked) [Compound 197], the Dmax lay in the range of 60 to 70%. Besides, the DC50 under setting [2] fell in the range of 1 to 5 nM.
In turn, `CN1CCN(c2ccn3ncc(-c4cn(-c5cn([C@H]6CC[C@H](CN7CCC8(CCN(c9cccc%10c9n(C)c(=O)n%10C9CCC(=O)NC9=O)CC8)C7)CC6)nc5C(F)F)nn4)c3n2)CC1` (some centres unmarked) [Compound 232] registered a Dmax greater than 80%. Under setting [2], the DC50 is 0.5 to 1 nM.
For `C[C@H]1CN(c2cccc3c2n(C)c(=O)n3C2CCC(=O)NC2=O)CCN1C[C@H]1CC[C@H](n2cc(-n3cc(-n4ccc5cc(C(N)=O)cnc54)nn3)c(C(F)F)n2)CC1` (some centres unmarked) [Example 156], the Dmax was greater than 80%. Under setting [1], this molecule gave a DC50 of less than 0.5 nM.
On the same counts, the results for `Cn1c(=O)n(C2CCC(=O)NC2=O)c2cccc(N3CC4(CCN(C[C@H]5CC[C@H](n6cc(-n7cc(-n8ccc9cc(C(N)=O)cnc98)nn7)c(C(F)F)n6)CC5)CC4)C3)c21` (some centres unmarked) [Example 105, 1-(1-(3-(difluoromethyl)-1-((1r,4r)-4-((2-(1-(2,6-dioxopiperidin-3-yl)-3-methyl-2-oxo-2,3-dihydro-1H-benzo[d]imidazol-4-yl)-2,7-diazaspiro[3.5]non-7-yl)methyl)cyclohexyl)-1H-pyrazol-4-yl)-1H-1,2,3-triazol-4-yl)-1H-pyrrolo[2,3-b]pyridine-5-carboxamide] are greater than 80% and less than 0.5 nM.
